The text below walks through data of patent publication US5789431A, “Naphthoquinone antitumor compound and method” (The University of North Carolina at Chapel Hill, priority 1996, dated 1998).

For series [1], the system named is NCI-H522. Nature of the series: in vitro non-small cell lung cancer cell growth inhibition (NCI screen).
Series [2] relates to MDA-N. Description: in vitro breast cancer cell growth inhibition (NCI screen).
The test system of series [3] is HCT-15. Nature of the series: in vitro colon cancer cell growth inhibition (NCI screen).
Series [4] deals with K-562. Description: in vitro leukemia cell growth inhibition (NCI screen).
Series [5] has as its system MCF7/ADR-RES. Description: in vitro breast cancer cell growth inhibition (NCI screen).
The test system of series [6] is CCRF-CEM. Nature of the series: in vitro leukemia cell growth inhibition (NCI screen).
In series [7] the test system is OVCAR-3. Description: in vitro ovarian cancer cell growth inhibition (NCI screen).
Series [8] has as its system SK-MEL-5. Description: in vitro melanoma cell growth inhibition (NCI screen).
The subject of series [9] is MALME-3M. Described as above.
The test system of series [10] is UACC-62. The series is described as above.
Series [11] relates to OVCAR-4. Description: in vitro ovarian cancer cell growth inhibition (NCI screen). The note with it: OVACR-4.
For series [12], the system named is human tumor cell lines. The format is cell-based. The settings on record: Homo sapiens; cancer cell panel, general / most cell lines; read-out: logGI50 values in the cancer cell line panel (converted).
In series [13] the test system is MOLT-4. Nature of the series: in vitro leukemia cell growth inhibition (NCI screen).
The test system of series [14] is MDA-MB-435. Nature of the series: in vitro breast cancer cell growth inhibition (NCI screen).
Series [15] deals with T-47D. The series is described as above.
Series [16] deals with UACC-257. Nature of the series: in vitro melanoma cell growth inhibition (NCI screen).
Series [17] has as its system SK-OV-3. Description: in vitro ovarian cancer cell growth inhibition (NCI screen).
In series [18] the test system is IGROV1. The description is as above.
The subject of series [19] is RPMI-8226. Nature of the series: in vitro leukemia cell growth inhibition (NCI screen).
In series [20] the test system is HT 29. Nature of the series: in vitro colon cancer cell growth inhibition (NCI screen).
Series [21] relates to HCC-2998. Described as above.
The subject of series [22] is MCF-7. Description: in vitro breast cancer cell growth inhibition (NCI screen).
The subject of series [23] is COLO-205. Nature of the series: in vitro colon cancer cell growth inhibition (NCI screen).
Series [24] concerns BT-549. Description: in vitro breast cancer cell growth inhibition (NCI screen).
The subject of series [25] is M14. Description: in vitro melanoma cell growth inhibition (NCI screen).
Series [26] concerns SF-539. Description: in vitro CNS cancer cell growth inhibition (NCI screen).
The test system of series [27] is HL-60(TB). Description: in vitro leukemia cell growth inhibition (NCI screen).
In series [28] the test system is HCT-116. Description: in vitro colon cancer cell growth inhibition (NCI screen).
The test system of series [29] is OVCAR-8. Nature of the series: in vitro ovarian cancer cell growth inhibition (NCI screen).
Series [30] has as its system RXF-393. Description: in vitro renal cancer cell growth inhibition (NCI screen).
Series [31] has as its system SW 620. Nature of the series: in vitro colon cancer cell growth inhibition (NCI screen).
The subject of series [32] is PC-3. Description: in vitro prostate cancer cell growth inhibition (NCI screen).
Series [33] relates to NCI-H23. Nature of the series: in vitro non-small cell lung cancer cell growth inhibition (NCI screen).

On to `CCCc1nc2c(n1CC)C(=O)c1ccccc1C2=O` [Compound 24], for which the “cytotoxicity log GI50” value in [1] was -4.62 M; in series [2], -4.70 M; in [3], -4.55 M; in [4], -4.51 M; in [5], -4.58 M; in series [6] it was -4.61 M. Further, the “cytotoxicity log GI50” value in series [7] is on record as -4.49 M; in [8] it was -4.53 M; in series [9] it was -4.65 M; in series [10] it was -4.59 M; in series [11], -4.49 M; in [13], -4.77 M. For the same compound, the “cytotoxicity log GI50” value in series [14] was -4.76 M; in [15], -4.55 M; in series [16], -4.74 M; in series [17], -4.66 M; in series [18], -4.57 M; in series [19], -4.50 M. The “cytotoxicity log GI50” value was -4.73 M in series [20] and -4.51 M in series [21]. In [12], the GI50 was around 10 µM.
`COC(=O)CCCC(=O)NC1=C(NCc2ccccc2)C(=O)c2ccccc2C1=O` [Compound 51]: the “cytotoxicity log GI50” value in series [2] is -4.38 M; in [5], -4.56 M; in series [6], -4.44 M; in series [7] it was -4.64 M; in series [22], -4.52 M; in series [9], -4.81 M. The “cytotoxicity log GI50” value in [23] was -4.62 M; in [24], -4.54 M; in series [10], -4.53 M; in [13], -4.47 M; in [25] it was -4.53 M; in [14], -4.37 M. For the same compound, the “cytotoxicity log GI50” value in [16] is reported as -4.53 M; in series [26], -4.44 M; in series [27], -4.54 M; in series [21], -4.49 M.
Take `CCNC1=C(NC(=O)c2ccc(F)cc2)C(=O)c2ccccc2C1=O` [Compound 48]: the “cytotoxicity log GI50” value was -4.52 M in series [28]; -4.68 M in [1]; -4.47 M in series [2]; -4.51 M in series [3]; -4.56 M in series [5]; -4.45 M in series [6]. In addition, the “cytotoxicity log GI50” value in [7] was -4.44 M; in series [8], -4.46 M; in [29], -4.49 M; in [22] it was -4.52 M; in [9], -4.72 M; in series [23] it was -4.58 M. Moreover, the “cytotoxicity log GI50” value in [10] is -4.82 M; in series [30] it was -4.53 M; in [31], -4.49 M; in [32], -4.76 M; in series [13], -4.52 M; in series [25], -4.61 M. Moreover, the “cytotoxicity log GI50” value in [14] is on record as -4.74 M; in [16], -4.80 M; in [17], -4.73 M; in series [33], -4.46 M; in series [18], -4.50 M; in series [20], -4.65 M. Moreover, in [21], the “cytotoxicity log GI50” value was -4.46 M.
